# Source: the NIST ThermoML archive (doi:10.1016/j.tca.2017.09.024)
# ± gives the expanded uncertainty stated by the source.
# Details: Crystal; DTA
row,Normal melting temperature [°C],Compound
1,-41.9 ± 2,Fc1ccccc1 [fluorobenzene]
2,5.6 ± 2,c1ccccc1 [benzene]
